Laboratory results from ChEMBL document CHEMBL3352042, “Synthesis of novel benzimidazole functionalized chiral thioureas and evaluation of their antibacterial and anticancer activities” (Bioorg Med Chem Lett, 2014).
Converted amounts (≈) assume the structure as drawn. The source made the active and inactive calls. No cut-off for these calls is given here.

Assays:
Pseudomonas aeruginosa = experiment: Antibacterial activity against Pseudomonas aeruginosa MTCC 2453 after 24 hrs by well diffusion method; assay type: functional
Micrococcus luteus = experiment: Antibacterial activity against Micrococcus luteus MTC 2470 after 24 hrs by well diffusion method; assay type: functional
Raoultella planticola = experiment: Antibacterial activity against Klebsiella planticola MTCC 530 after 24 hrs by well diffusion method; assay type: functional
Staphylococcus aureus [1] = experiment: Antibacterial activity against Staphylococcus aureus MTCC 96 after 24 hrs by well diffusion method; assay type: functional
MCF7 = experiment: Cytotoxicity against human MCF7 cells by MTT assay; assay type: functional, cell-based; conditions: Homo sapiens, MCF7; read-out: IC50
HeLa = experiment: Cytotoxicity against human HeLa cells by MTT assay; assay type: functional, cell-based
DU-145 = experiment: Cytotoxicity against human DU145 cells by MTT assay; assay type: functional, cell-based; conditions: Homo sapiens, DU-145; read-out: IC50
Escherichia coli = experiment: Antibacterial activity against Escherichia coli MTCC 739 after 24 hrs by well diffusion method; assay type: functional
A549 = experiment: Cytotoxicity against human A549 cells by MTT assay; assay type: functional, cell-based; conditions: Homo sapiens, A549; read-out: IC50
Staphylococcus aureus [2] = experiment: Antibacterial activity against Staphylococcus aureus MLS16 MTCC 2940 after 24 hrs by well diffusion method; assay type: functional
Bacillus subtilis = experiment: Antibacterial activity against Bacillus subtilis MTCC 121 after 24 hrs by well diffusion method; assay type: functional
[3] = Homo sapiens, HeLa, read-out: IC50

Compound	MIC (Pseudomonas aeruginosa)	MIC (Micrococcus luteus)	MIC (Staphylococcus aureus [1])	MIC (Escherichia coli)	MIC (Staphylococcus aureus [2])	MIC (Bacillus subtilis)	MIC (Pseudomonas aeruginosa; MTCC 2453, 24 h) [µg/mL]	MIC (Micrococcus luteus; MTC 2470, 24 h) [µg/mL]	MIC (Staphylococcus aureus [1]; MTCC 96, 24 h) [µg/mL]	MIC (Escherichia coli; MTCC 739, 24 h) [µg/mL]	MIC (Staphylococcus aureus [2]; MLS16 MTCC 2940, 24 h) [µg/mL]	MIC (Bacillus subtilis; MTCC 121, 24 h) [µg/mL]	MIC (Raoultella planticola)	IC50 (MCF7) [µM]	IC50 (HeLa; hela)	IC50 (DU-145) [µM]	IC50 (A549) [µM]	MIC (Raoultella planticola; MTCC 530, 24 h) [µg/mL]	IC50 (HeLa; [3]) [µM]
FC(F)(F)c1cc(NC(=S)N[C@@H](Cc2ccccc2)c2nc3ccccc3[nH]2)cc(C(F)(F)F)c1	–	–	–	–	–	–	> 200	> 200	12.5 (≈ 24.6 µM)	12.5 (≈ 24.6 µM)	> 200	> 200	–	19.2	–	20.4	19	> 200	18.2
CC(C)C[C@@H](NC(=S)Nc1ccccc1)c1nc2ccccc2[nH]1	inactive	inactive	inactive	inactive	inactive	inactive	–	–	–	–	–	–	inactive	11.9	–	20	18.7	–	12.1
CC(C)[C@@H](NC(=S)Nc1cc(C(F)(F)F)cc(C(F)(F)F)c1)c1nc2ccccc2[nH]1	inactive	inactive	inactive	inactive	inactive	inactive	–	–	–	–	–	–	inactive	16.4	–	20.2	22.4	–	16.2
CC(C)[C@H](NC(=S)Nc1cc(C(F)(F)F)cc(C(F)(F)F)c1)c1nc2ccccc2[nH]1	–	–	–	–	–	–	6.25 (≈ 13.6 µM)	25 (≈ 54.3 µM)	25 (≈ 54.3 µM)	12.5 (≈ 27.1 µM)	12.5 (≈ 27.1 µM)	12.5 (≈ 27.1 µM)	–	24.3	–	26.1	25.1	25 (≈ 54.3 µM)	28.9

Now from value to compound, other results behind:

MIC (Pseudomonas aeruginosa)	MIC (Micrococcus luteus)	MIC (Staphylococcus aureus [1])	MIC (Escherichia coli)	MIC (Staphylococcus aureus [2])	MIC (Bacillus subtilis)	MIC (Pseudomonas aeruginosa; MTCC 2453, 24 h) [µg/mL]	MIC (Micrococcus luteus; MTC 2470, 24 h) [µg/mL]	MIC (Staphylococcus aureus [1]; MTCC 96, 24 h) [µg/mL]	MIC (Escherichia coli; MTCC 739, 24 h) [µg/mL]	MIC (Staphylococcus aureus [2]; MLS16 MTCC 2940, 24 h) [µg/mL]	MIC (Bacillus subtilis; MTCC 121, 24 h) [µg/mL]	Compound	MIC (Raoultella planticola)	IC50 (MCF7) [µM]	IC50 (HeLa; hela)	IC50 (DU-145) [µM]	IC50 (A549) [µM]	MIC (Raoultella planticola; MTCC 530, 24 h) [µg/mL]	IC50 (HeLa; [3]) [µM]
inactive	inactive	inactive	inactive	inactive	inactive	–	–	–	–	–	–	S=C(NCc1ccccc1)N[C@H](Cc1ccccc1)c1nc2ccccc2[nH]1	inactive	32.2	Not Active	24.3	26.5	–	–
–	–	–	–	–	–	> 200	> 200	> 200	> 200	> 200	> 200	CC(C)[C@H](NC(=S)Nc1ccccc1)c1nc2ccccc2[nH]1	–	9.8	–	12.3	5.2	> 200	11.1
